# Like-named read-outs stand apart in the source and are kept apart here.
# Experiments:
# [1] = test system: PhoU transposon mutant (JHU-313); type: cell-based
# [2] = test system: JHU-313 containing pVector; assay: MIC/MBC by serial two-fold dilutions in LB broth; type: cell-based, E. coli; conditions: Escherichia coli, 16 h at 37° C.
# wild type strain W3110 [3] = type: cell-based, E. coli
# JHU-313 = assay: Kirby-Bauer paper disc assay, zone inhibition; conditions: Escherichia coli, read-out: zone inhibition
# Experimental: (§1) The sensitivity of the bacterial strains to antibiotics or peroxide was determined by Kirby-Bauer's paper disc assay as measured by zone inhibition in millimeters.
# (§2) The sensitivity of bacterial strains to antibiotics or stresses was also assessed by the Kirby-Bauer method (2) using paper discs. E. coli bacteria were grown to log phase (10^8 bacteria) in LB broth. An inoculum from this culture was spread across the surfaces of LB plates to provide confluent growth. Nitrocellulose discs (7 mm in diameter) soaked with appropriate antibiotics or stress agents (100 mM H2O2, were placed on the agar surface). After incubation at 37° C. for 48 h, the diameter of the zone of growth inhibition was measured and scored according to the size of the zone of inhibition, which is directly proportional to the sensitivity of the organism to the antibiotic.
# PhoU mutant (JHU-313) [4] = assay: Sequential antibiotic exposure of ampicillin persisters (CFU); type: cell-based, E. coli
# [5] = test system: PhoU deletion mutant (ΔphoU); type: cell-based
# wild type strain W3110 [6] = type: cell-based
# W3110 = assay: microbe, parasite or virus in culture; conditions: Escherichia coli, read-out: zone inhibition
# Experimental: as §1, §2
# JHU-313 containing pPhoU [7] = assay: Kirby-Bauer paper disc assay, zone inhibition; conditions: Escherichia coli, read-out: zone inhibition
# Experimental: as §1, §2
# PhoU mutant (JHU-313) [8] = assay: MIC/MBC by serial two-fold dilutions in LB broth; type: cell-based, E. coli; conditions: Escherichia coli, 16 h at 37° C.
# JHU-313 containing pPhoU [9] = assay: MIC/MBC by serial two-fold dilutions in LB broth; type: cell-based, E. coli; conditions: Escherichia coli, 16 h at 37° C.
# [10] = test system: JHU-313 containing pVector; assay: Kirby-Bauer paper disc assay, zone inhibition; conditions: Escherichia coli, read-out: zone inhibition
# Experimental: as §1, §2
# wild type strain W3110 [11] = assay: microbe, parasite or virus in culture; type: cell-based, E. coli; conditions: Escherichia coli, W3110, LB broth, 16 h at 37° C.
# PhoU = target: T1, PhoU (Escherichia coli, UniProt P0A9K7); assay: PhoU phosphatase substrate specificity; type: biochemical, E. coli; conditions: pH5, pH7 and pH8
# T1 construct: His; made in house
# Experimental: Different substrates for the PhoU phosphatase activity were tested. […] For PhoU, the substrates acetyl-P, carbamoyl-P, imido-di phosphate (imido-di-P), r-nitrophenyl phosphate (rNPP), β-Nicotinamide adenine dinucleotide phosphate (NADP), Glucose-1,6-bisphosphate (Glucose-1,6-bisP) were tested at pH5, pH7, and pH8 condition, as potential PhoU phosphatase activity.
# [12] = log phase, 100 μg/ml, 24 hr exposure
# [13] = log phase, 1 week, Ap100, Norf3
# [14] = log phase, 5 hr, ampicillin 100 μg/ml (Ap100), norfloxacin 3 μg/ml (Norf3)
# [15] = log phase, 3 days, Ap100, Norf3
# [16] = log phase, 5 days, Ap100, Norf3
# [17] = log phase, 10 days, Ap100, Norf3
# [18] = log phase, ampicillin 100 μg/ml, norfloxacin 3 μg/ml
# [19] = stationary phase, 100 μg/ml, 72 hr
# [20] = stationary phase, 1 week, Ap100, Norf3
# [21] = stationary phase, 5 hr, ampicillin 100 μg/ml (Ap100), norfloxacin 3 μg/ml (Norf3)
# [22] = stationary phase, 1 day, Ap100, Norf3
# [23] = stationary phase, 3 days, Ap100, Norf3
# [24] = stationary phase, 5 days, Ap100, Norf3
# [25] = stationary phase, 10 days, Ap100, Norf3
# [26] = 20 h after 1.5 h ampicillin pre-exposure, ampicillin 100, gentamicin 20, trimethoprim 16, norfloxacin 5 μg/ml
# [27] = log phase, ampicillin 100 μg/ml, 1.5 h
# T1 sequence (P0A9K7 whole entry): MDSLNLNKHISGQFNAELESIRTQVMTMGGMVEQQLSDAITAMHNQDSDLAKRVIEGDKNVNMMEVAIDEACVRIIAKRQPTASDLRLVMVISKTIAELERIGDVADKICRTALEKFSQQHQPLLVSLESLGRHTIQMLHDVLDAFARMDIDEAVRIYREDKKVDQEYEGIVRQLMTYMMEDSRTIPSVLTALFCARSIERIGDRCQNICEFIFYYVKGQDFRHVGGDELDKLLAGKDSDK
smiles,measurement,setting,value
"CC1(C)S[C@@H]2[C@H](NC(=O)[C@H](N)c3ccccc3)C(=O)N2[C@H]1C(=O)O [Ampicillin, ampicillin]",killed more than the wild type strain,"[1]; log phase, 100 μg/ml, 3 hr",about 100 fold
same,viable cells remaining,[1]; [12],no viable cells remained
same,CFU,[1]; [13],0 CFU
same,CFU,[1]; [14],20 CFU
same,CFU,"[1]; log phase, 1 day, Ap100, Norf3",0-1 CFU
same,CFU,[1]; [15],0 CFU
same,CFU,[1]; [16],0 CFU
same,CFU,[1]; [17],0 CFU
same,time to killing of all cells,[1]; [18],all cells were killed by three days
same,sterilization of culture,[1]; [19],completely sterilized
same,CFU,[1]; [20],0 CFU
same,CFU,[1]; [21],2 × 10^8 CFU
same,CFU,[1]; [22],1 × 10^7 CFU
same,CFU,[1]; [23],0 CFU
same,CFU,[1]; [24],0 CFU
same,CFU,[1]; [25],0 CFU
same,MBC,[2]; read-out: MBC,6.25 µg/mL
same,MIC,[2]; read-out: MIC,3.1 µg/mL
same,CFU after second antibiotic exposure,wild type strain W3110 [3]; [26],7 × 10^5 CFU/ml
same,decrease in CFU count,"wild type strain W3110 [3]; log phase, 100 μg/ml, 1.5 hr",3 log
same,CFU after ampicillin treatment,wild type strain W3110 [3]; [27],7 × 10^4 CFU/ml
same,zone of inhibition at 1.5 µg/mL,JHU-313,25 mm
same,zone of inhibition at 6 µg/mL,JHU-313,30 mm
same,zone of inhibition at 25 µg/mL,JHU-313,35 mm
same,zone of inhibition at 100 µg/mL,JHU-313,40 mm
same,CFU after second antibiotic exposure,PhoU mutant (JHU-313) [4]; [26],0 CFU/ml
same,decrease in CFU count,"PhoU mutant (JHU-313) [4]; log phase, 100 μg/ml, 1.5 hr",3 log
same,CFU after ampicillin treatment,PhoU mutant (JHU-313) [4]; [27],4 × 10^4 CFU/ml
same,CFU,[5]; [13],0 CFU
same,CFU,[5]; [14],6 × 10^2 CFU
same,CFU,"[5]; log phase, 1 day, Ap100, Norf3",0-1 CFU
same,CFU,[5]; [15],0 CFU
same,CFU,[5]; [16],0 CFU
same,CFU,[5]; [17],0 CFU
same,time to killing of all cells,[5]; [18],all cells were killed by three days
same,CFU,[5]; [20],0 CFU
same,CFU,[5]; [21],6 × 10^8 CFU
same,CFU,[5]; [23],0 CFU
same,CFU,[5]; [24],0 CFU
same,CFU,[5]; [25],0 CFU
same,viable bacteria left,wild type strain W3110 [6]; [12],10-100
same,CFU,wild type strain W3110 [6]; [13],0 CFU
same,CFU,wild type strain W3110 [6]; [14],3 × 10^3 CFU
same,CFU,"wild type strain W3110 [6]; log phase, 1 day, Ap100, Norf3",10 CFU
same,CFU,wild type strain W3110 [6]; [15],0 CFU
same,CFU,wild type strain W3110 [6]; [16],0 CFU
same,CFU,wild type strain W3110 [6]; [17],0 CFU
same,time to killing of all cells,wild type strain W3110 [6]; [18],all cells were killed by three days
same,viable cells,wild type strain W3110 [6]; [19],10^8 CFU/ml
same,CFU,wild type strain W3110 [6]; [20],5 × 10^6 CFU
same,CFU,wild type strain W3110 [6]; [21],5 × 10^9 CFU
same,CFU,wild type strain W3110 [6]; [22],3 × 10^9 CFU
same,CFU,wild type strain W3110 [6]; [23],1 × 10^8 CFU
same,CFU,wild type strain W3110 [6]; [24],3 × 10^7 CFU
same,CFU,wild type strain W3110 [6]; [25],2 × 10^5 CFU
same,zone of inhibition at 1.5 µg/mL,W3110,21 mm
same,zone of inhibition at 6 µg/mL,W3110,25 mm
same,zone of inhibition at 25 µg/mL,W3110,28 mm
same,zone of inhibition at 100 µg/mL,W3110,35 mm
same,zone of inhibition at 1.5 µg/mL,JHU-313 containing pPhoU [7],25 mm
same,zone of inhibition at 6 µg/mL,JHU-313 containing pPhoU [7],32 mm
same,zone of inhibition at 25 µg/mL,JHU-313 containing pPhoU [7],36 mm
same,zone of inhibition at 100 µg/mL,JHU-313 containing pPhoU [7],40 mm
same,MBC,PhoU mutant (JHU-313) [8]; read-out: MBC,6.25 µg/mL
same,MIC,PhoU mutant (JHU-313) [8]; read-out: MIC,1.5 µg/mL
same,MBC,JHU-313 containing pPhoU [9]; read-out: MBC,12.5 µg/mL
same,MIC,JHU-313 containing pPhoU [9]; read-out: MIC,3.1 µg/mL
same,zone of inhibition at 1.5 µg/mL,[10],27 mm
same,zone of inhibition at 6 µg/mL,[10],34 mm
same,zone of inhibition at 25 µg/mL,[10],40 mm
same,zone of inhibition at 100 µg/mL,[10],45 mm
same,MBC,wild type strain W3110 [11]; read-out: MBC,12.5 µg/mL
same,MIC,wild type strain W3110 [11]; read-out: MIC,3.1 µg/mL
"O=P(O)(O)OC[C@H]1O[C@H](OP(=O)(O)O)[C@H](O)[C@@H](O)[C@@H]1O [Glucose-1,6-bisP, Glucose-1,6-bisphosphate]",rank as PhoU phosphatase substrate,PhoU,"acetyl-P>rNPP>carbamoyl-P>Glucose-1,6-bisP>NADP"

# Source: patent US20100210602A1, “PhoU (PerF), A P[…] INVOLVED IN [sequence] FORMATION AND TOLERANCE TO MULTIPLE ANTIBIOTICS AND [sequence] AS A DRUG TARGET FOR [sequence] BACTERIA” (priority 2006, published 2010)
